Test systems include HOP-62 NSCLC; IGROV1 ovarian; LOX IMVI melanoma; MDA-MB-231 breast; MDA-MB-435; NCI-H522 lung; SK-MEL-2 melanoma; SNB-19 CNS; SNB-75 CNS; SR leukemia.
Holding throughout (assay): NCI anticancer screen, dose series, 48 h

Molecules are shown by their SMILES. Where “and” joins values, the source holds several entries; their conditions need not be identical. Identical values can stand only once.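 The compound was tested at five concentrations on cells cultured in 96-well plates, with a 48-hour exposure period. Here, GI50 denotes the concentration required for 50% inhibition of growth. At the TGI there is no net growth.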

With `COc1ccc2nc3ccccc3c(NCc3ccccc3)c2c1`, the GI50 in the assay with HOP-62 NSCLC is 2.62 µM; in the assay with IGROV1 ovarian it was 2.34 µM; in the assay with LOX IMVI melanoma, 1.61 µM; in the assay with MDA-MB-231 breast it was 1.85 µM; in the assay with MDA-MB-435, 1.91 µM; in the assay on NCI-H522 lung, 1.77 µM. Moreover, the GI50 is 2.2 µM in the assay with SK-MEL-2 melanoma, 3.41 µM in the assay on SNB-19 CNS, 2.48 µM in the assay with SNB-75 CNS and 1.38 µM in the assay with SR leukemia. Further, the TGI in the assay on HOP-62 NSCLC worked out at 9.95 µM; with IGROV1 ovarian it was 6.66 µM; with LOX IMVI melanoma, 3.29 µM; in the assay with MDA-MB-231 breast, 4.38 µM; in the assay on MDA-MB-435 it was 3.93 µM; with NCI-H522 lung it was 4.6 µM. The TGI in the assay on SK-MEL-2 melanoma worked out at 4.9 µM; with SNB-19 CNS, 13.7 µM; with SNB-75 CNS, 10 µM; with SR leukemia, 4.51 µM.
For the compound `Cc1cc(OCc2nn(CN3CCN(C)CC3)c(=S)n2/N=C/c2ccc(F)cc2)ccc1Cl`, the GI50 was 18.7 µM in the assay with HOP-62 NSCLC; 16.2 µM in the assay with IGROV1 ovarian; 18.3 µM with LOX IMVI melanoma; 18.5 µM in the assay on MDA-MB-231 breast; 18 µM with MDA-MB-435; 15.7 µM with NCI-H522 lung. For the same compound, the GI50 with SK-MEL-2 melanoma was 18.5 µM; in the assay on SNB-19 CNS, 17.6 µM; in the assay with SNB-75 CNS, 13.4 µM; in the assay on SR leukemia, 13.3 µM. Further, the TGI came out at 34.4 µM in the assay on HOP-62 NSCLC; 30.5 µM in the assay on IGROV1 ovarian; 32.7 µM in the assay with LOX IMVI melanoma; 36 µM in the assay with MDA-MB-231 breast; 36.2 µM in the assay on MDA-MB-435; 30.8 µM in the assay with NCI-H522 lung. For the same compound, the TGI in the assay with SK-MEL-2 melanoma was determined as 37.6 µM; with SNB-19 CNS, 33.8 µM; in the assay with SNB-75 CNS, 32.2 µM; in the assay with SR leukemia, 29.7 µM.
For `CC(=N\O)/C(C)=N/O.CC(=N\O)/C(C)=N/O.[Fe].[NH2-].c1c[nH]cn1`, the GI50 with HOP-62 NSCLC was greater than 100 µM; in the assay on IGROV1 ovarian, greater than 100 µM; with LOX IMVI melanoma it was 3.17 µM; in the assay with MDA-MB-231 breast, greater than 100 µM; in the assay on MDA-MB-435, greater than 100 µM; in the assay with NCI-H522 lung, greater than 100 µM. In addition, the GI50 in the assay on SK-MEL-2 melanoma, with SNB-19 CNS, in the assay on SNB-75 CNS and in the assay with SR leukemia was greater than 100 µM in each case. Further, the TGI in the assay with HOP-62 NSCLC was greater than 100 µM; in the assay with IGROV1 ovarian, greater than 100 µM; in the assay with LOX IMVI melanoma, 13.2 µM; in the assay with MDA-MB-231 breast, greater than 100 µM; in the assay with MDA-MB-435, greater than 100 µM; with NCI-H522 lung it was greater than 100 µM. Moreover, the TGI in the assay with SK-MEL-2 melanoma, in the assay on SNB-19 CNS, with SNB-75 CNS and in the assay with SR leukemia was greater than 100 µM throughout.
With `C(=C\c1ccc(OCC2CO2)cc1)/C1=NCOC1` (centres undefined), the GI50 in the assay on HOP-62 NSCLC is 26 µM; with IGROV1 ovarian, 5.74 µM; in the assay with LOX IMVI melanoma, 3.35 µM; in the assay on MDA-MB-231 breast it was 14.7 µM; with MDA-MB-435, 11 µM; in the assay with NCI-H522 lung, 3.13 µM. The GI50 in the assay on SK-MEL-2 melanoma was 10 µM; in the assay on SNB-19 CNS it was 4.73 µM; in the assay on SNB-75 CNS it was 16.6 µM; in the assay with SR leukemia, 3.05 µM. The TGI in the assay with HOP-62 NSCLC was 65.3 µM; in the assay with IGROV1 ovarian, 20.4 µM; in the assay on LOX IMVI melanoma, 13.6 µM; with MDA-MB-231 breast, 30.7 µM; with MDA-MB-435, 37.3 µM; in the assay with NCI-H522 lung it was 13.1 µM. Moreover, the TGI in the assay with SK-MEL-2 melanoma turned out to be 36 µM; in the assay on SNB-19 CNS, 29.2 µM; in the assay with SNB-75 CNS it was 31.6 µM; in the assay with SR leukemia, 11.9 µM.
For the compound `O=c1[nH]c(=O)n(C2OC(CO)C(O)C2O)cc1F` (centres undefined), the TGI with HOP-62 NSCLC is 8.59 µM; in the assay with IGROV1 ovarian, 3.12 µM; in the assay with LOX IMVI melanoma, 7.18 µM; in the assay on MDA-MB-231 breast, greater than 100 µM; in the assay with MDA-MB-435, greater than 77.9 µM; with NCI-H522 lung, 30.6 µM. Also, the TGI in the assay with SK-MEL-2 melanoma was greater than 84.6 µM; in the assay on SNB-19 CNS, greater than 100 µM; in the assay with SNB-75 CNS it was greater than 100 µM. Moreover, the GI50 in the assay on LOX IMVI melanoma was 0.016 µM; with MDA-MB-435, 0.0445 µM; in the assay on NCI-H522 lung it was 0.349 µM; with SR leukemia it was 0.0274 µM.
On to `CCC(=C(c1ccc(OCCN2CCCC2)cc1)c1ccc(OCCN2CCCC2)cc1)c1ccc(Cl)cc1`, for which the GI50 with HOP-62 NSCLC is 0.688 µM; in the assay on IGROV1 ovarian, 0.582 µM; with LOX IMVI melanoma, 0.54 µM; in the assay on MDA-MB-231 breast, 0.589 µM; in the assay on MDA-MB-435 it was 0.552 µM; in the assay with NCI-H522 lung, 0.577 µM. For the same compound, the GI50 in the assay with SK-MEL-2 melanoma was 0.688 µM; in the assay on SNB-19 CNS it was 0.624 µM; with SNB-75 CNS, 0.921 µM; with SR leukemia, 0.347 µM. The TGI in the assay with HOP-62 NSCLC worked out at 1.58 µM; with IGROV1 ovarian, 1.1 µM; in the assay on LOX IMVI melanoma, 1.02 µM; with MDA-MB-231 breast, 1.11 µM; in the assay on MDA-MB-435, 1.03 µM; with NCI-H522 lung, 1.24 µM. The TGI with SK-MEL-2 melanoma was 1.35 µM; in the assay with SNB-19 CNS, 1.19 µM; with SNB-75 CNS, 2.61 µM; with SR leukemia it was 1.09 µM.
For `COc1ccc2c(c1)C(=O)c1c-2n(CCCCl)c(=O)c2cc(N)ccc12`, the GI50 with HOP-62 NSCLC was greater than 100 µM; with IGROV1 ovarian, greater than 100 µM; in the assay on LOX IMVI melanoma, 98.2 µM; with MDA-MB-231 breast, 25.6 µM; in the assay with MDA-MB-435, greater than 100 µM; with NCI-H522 lung it was greater than 84.4 µM. The GI50 in the assay on SK-MEL-2 melanoma is greater than 100 µM; in the assay on SNB-19 CNS it was greater than 100 µM; in the assay with SNB-75 CNS it was greater than 51.7 µM; in the assay on SR leukemia, greater than 62.8 µM. Also, the TGI is greater than 100 µM with HOP-62 NSCLC; greater than 100 µM in the assay on IGROV1 ovarian; greater than 100 µM with LOX IMVI melanoma; greater than 95.7 µM in the assay with MDA-MB-231 breast; greater than 100 µM in the assay on MDA-MB-435; greater than 100 µM with NCI-H522 lung. Also, the TGI was greater than 100 µM in the assay with SK-MEL-2 melanoma, greater than 100 µM in the assay on SNB-19 CNS, greater than 85.7 µM in the assay with SNB-75 CNS and greater than 100 µM with SR leukemia.
On to `NC(Cc1c[nH]c2cccc(F)c12)C(=O)O` (centres undefined), for which the TGI is 3180 µM in the assay on HOP-62 NSCLC; 982 µM in the assay with LOX IMVI melanoma; 2300 µM in the assay on MDA-MB-231 breast; greater than 4500 µM with MDA-MB-435; 74.5 µM and 729 µM in the assay with NCI-H522 lung; greater than 4500 µM with SK-MEL-2 melanoma. The TGI with SNB-19 CNS was greater than 4500 µM; in the assay on SNB-75 CNS, 2790 µM; in the assay with SR leukemia, greater than 4500 µM. Further, the GI50 is 43.8 µM in the assay with IGROV1 ovarian; 51.6 µM and 211 µM with LOX IMVI melanoma; 545 µM with MDA-MB-231 breast; 50.9 µM and 189 µM in the assay on MDA-MB-435; 27.7 µM and 176 µM in the assay on NCI-H522 lung; 1120 µM in the assay with SNB-19 CNS. Besides, the GI50 in the assay with SNB-75 CNS is 77.2 µM and 726 µM.

(Values after PubChem BioAssay (NCI).)
